# Assay results as given in US11034685B2, “Aminopyridine derivatives as TAM family kinase inhibitors” (SignalChem Lifesciences Corporation, priority 2013, dated 2021).
# Assays:
# Type in all cases: biochemical
# [1] = molecular target: T1, Recombinant human Tyro3 (455-end) (Homo sapiens, UniProt Q06418); assay: Kinase enzymatic activity assay ([33P]-ATP phosphate transfer), Tyro3; settings: inhibitory activity on Tyro3; class symbols
# T1 construct: GST (N); made in house; host or cells: Sf9 insect cells (baculovirus)
# T1 sequence (Q06418 455-890 limits assumed): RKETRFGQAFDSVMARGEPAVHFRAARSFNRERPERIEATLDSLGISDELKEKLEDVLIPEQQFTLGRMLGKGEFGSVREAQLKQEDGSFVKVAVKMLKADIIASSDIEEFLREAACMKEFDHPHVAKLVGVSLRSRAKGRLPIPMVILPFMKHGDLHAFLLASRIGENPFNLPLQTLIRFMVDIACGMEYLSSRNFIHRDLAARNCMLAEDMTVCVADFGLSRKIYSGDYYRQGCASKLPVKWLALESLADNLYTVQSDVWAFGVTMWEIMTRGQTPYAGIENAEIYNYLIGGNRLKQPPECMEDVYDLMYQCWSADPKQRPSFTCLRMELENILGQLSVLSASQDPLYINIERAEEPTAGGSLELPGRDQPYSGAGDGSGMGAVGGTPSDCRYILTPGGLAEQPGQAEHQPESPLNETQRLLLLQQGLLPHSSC
# Experimental: (§1) Preparation of Active Recombinant Kinase Proteins:
# (§2) Recombinant human Tyro3 (455-end, the gene accession number NM_006293), human Axl (473-end, the gene accession number NM_021913) and human Mer (578-872, the gene accession number NM_006343) were independently expressed by baculovirus in Sf9 insect cells using an N-terminal GST tag. The recombinant proteins were stored at −70° C. in a medium containing 50 mM Tris-HCl, pH 7.5, 150 mM NaCl, 10 mM glutathione, 0.1 mM EDTA, 0.25 mM DTT, 0.1 mM PMSF and 25% glycerol. The recombinant proteins were aliquoted into smaller quantities after centrifugation to avoid repeated handling and multiple freeze/thaw cycles for the most favorable performance.
# (§3) Preparation of Assay Reagents:
# (§4) Kinase Assay Buffer: This buffer solution consisted of the following components: 25 mM MOPS, pH 7.2, 12.5 mM β-glycerol-phosphate, 25 mM MgCl2, 5 mM EGTA, 2 mM EDTA and DTT 0.25 mM which was added prior to use.
# (§5) Kinase Dilution Buffer: Kinase Assay Buffer was diluted at a 1:4 ratio (5× dilution) with distilled water.
# (§6) [^33P]-ATP assay cocktail: In a designated radioactive working area, a 250 μM [^33P]-ATP assay cocktail was prepared by the addition of the following components: 150 μL of 10 mM ATP stock solution, 100 μL [^33P]-ATP (1 mci/100 μL), 5.75 mL of kinase assay buffer. This solution was stored in 1 mL aliquots at −20 OC.
# (§7) ATP stock solution (10 mM): The ATP stock solution was prepared by dissolving 55 mg of ATP in 10 mL of kinase assay buffer. It was stored in 200 μL aliquots at −20° C.
# (§8) Active Kinase Stock Solution: The active recombinant kinase protein (0.1 μg/μL) was diluted with Kinase Dilution Buffer and the activity was assayed using a serial dilution method. The specific activity is expressed in nmoL/min/mg.
# (§9) Substrates: poly(4:1 glu:tyr) is the substrate used for each kinase Tyro3, Axl and Mer: The peptide substrate was dissolved in water to give the final concentration of 1 mg/mL.
# (§10) Test compound solution: Test compound was dissolved in DMSO to obtain a 10 mM solution. The assay solution was prepared by adding 5 μL of this solution to […] of 10% DMSO/water to obtain the final concentration of 50 μM.
# (§11) The enzymatic activity of all three kinases was determined as follows. Using a 96-well plate, the wells were divided into three categories: Blank wells, […] and Test wells. In Test wells, 5 μL of the test compound solution and 5 μL of the substrate solution were added. In Control wells, 5 μL of 10% DMSO/water and 5 μL of the substrate solution were added. In Blank wells, 10 μL of 10% DMSO/water was added. To each well was added 10 μL of Active Kinase Stock Solution to make up the volume in each well to 20 μL. All test samples, controls and blanks were run in duplicate. The reaction was initiated by the addition of 5 μL of [^33P]-ATP assay cocktail, bringing the final volume up to 25 μL in every well. The mixture was incubated at room temperature for 30 minutes. The reaction was terminated by transferring 10 μL of the reaction mixture into a Millipore MultiScreen filter plate (cat. number MSPHN6B50). The filter plate was washed in a 1% phosphoric acid solution with constant gentle shaking for 15 minutes and this step was repeated once. After the plate was dried in air, scintillation fluid was added to each well and the radioactivity in each well in CPM was counted by a Microbeta TriLux. The corrected CPM in each test well was determined by subtracting the average value of Blank well values. Percentage of inhibition of the kinase enzymatic activity by the test compound was determined using the following formula: […]
# (§12) The IC50 values were determined in a similar way following a serial dilution of the test compound. The percentage of inhibition at each concentration was calculated following the above formula. The IC50 was estimated from the curve of % Inhibition against Concentration in log unit using Prism 5, version 5.01.
# human Axl (473-end) = molecular target: T2, human Axl (473-end) (Homo sapiens, UniProt P30530); assay: Kinase enzymatic activity assay ([33P]-ATP phosphate transfer), Axl; settings: inhibitory activity on Axl; class symbols
# T2 construct: GST (N); made in house; host or cells: Sf9 insect cells (baculovirus)
# T2 sequence (P30530 473-894 limits assumed): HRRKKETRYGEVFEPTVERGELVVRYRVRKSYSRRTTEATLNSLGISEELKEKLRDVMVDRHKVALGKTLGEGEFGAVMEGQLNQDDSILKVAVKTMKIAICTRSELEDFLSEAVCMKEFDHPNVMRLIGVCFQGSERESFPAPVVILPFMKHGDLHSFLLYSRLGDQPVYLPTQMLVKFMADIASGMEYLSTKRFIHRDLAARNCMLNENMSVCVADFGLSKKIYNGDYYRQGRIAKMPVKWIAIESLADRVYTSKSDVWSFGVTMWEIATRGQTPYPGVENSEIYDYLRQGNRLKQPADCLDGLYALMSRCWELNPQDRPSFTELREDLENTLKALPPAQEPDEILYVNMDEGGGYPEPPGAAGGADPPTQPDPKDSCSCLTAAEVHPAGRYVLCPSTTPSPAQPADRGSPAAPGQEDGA
# Experimental: as §1, §2, §3, §4, §5, §6, §7, §8, §9, §10, §11, §12
# human Mer (578-872) = molecular target: T3, human Mer (578-872) (Homo sapiens, UniProt Q12866); assay: Kinase enzymatic activity assay ([33P]-ATP phosphate transfer), Mer; settings: inhibitory activity on Mer; class symbols
# T3 construct: GST (N); made in house; host or cells: Sf9 insect cells (baculovirus)
# T3 sequence (Q12866 578-872): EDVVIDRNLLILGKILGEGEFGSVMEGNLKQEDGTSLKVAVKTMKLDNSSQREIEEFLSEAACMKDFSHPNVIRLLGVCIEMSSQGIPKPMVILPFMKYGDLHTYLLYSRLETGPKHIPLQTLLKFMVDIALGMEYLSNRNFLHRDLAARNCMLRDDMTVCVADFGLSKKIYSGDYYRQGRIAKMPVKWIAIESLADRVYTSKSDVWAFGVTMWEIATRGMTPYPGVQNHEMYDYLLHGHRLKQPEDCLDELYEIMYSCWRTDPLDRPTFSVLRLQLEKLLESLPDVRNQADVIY
# Experimental: as §1, §2, §3, §4, §5, §6, §7, §8, §9, §10, §11, §12
Compound,IC50 [1] [nM],IC50 (human Axl (473-end)) [nM],IC50 (human Mer (578-872)) [nM]
"Nc1ncc(-c2cnn(C3CCNCC3)c2)cc1-c1nnc(-c2c(Cl)ccc(F)c2Cl)o1 [3-(5-(2,6-dichloro-3-fluorophenyl)-1,3,4-oxadiazol-2-yl)-5-(1-(piperidin-4-yl)-1H-pyrazol-4-yl)pyridin-2-amine]",< 500,< 500,< 500
"Nc1ncc(-c2cnn(C3CCN(C(=O)C4CC4)CC3)c2)cc1-c1nnc(-c2c(Cl)cccc2Cl)o1 [(4-(4-(6-amino-5-(5-(2,6-dichlorophenyl)-1,3,4-oxadiazol-2-yl)pyridin-3-yl)-1H-pyrazol-1-yl)piperidin-1-yl)(cyclopropyl)methanone]",< 500,< 500,1000 to 10000
"Nc1ncc(-c2cn[nH]c2)cc1-c1nnc(-c2ccc(F)cc2)o1 [3-(5-(4-fluorophenyl)-1,3,4-oxadiazol-2-yl)-5-(1H-pyrazol-4-yl)pyridin-2-amine]",< 500,< 500,500 to 1000
CC(C)(C)OC(=O)N1CCC(n2cc(-c3cnc(N)c(-c4ncc(-c5ccc(Cl)cc5)o4)c3)cn2)CC1 [tert-butyl 4-(4-(6-amino-5-(5-(4-chlorophenyl)oxazol-2-yl)pyridin-3-yl)-1H-pyrazol-1-yl)piperidine-1-carboxylate],1000 to 10000,500 to 1000,1000 to 10000
Nc1ncc(-c2cnn(C3CCCCC3)c2)cc1-c1cc(-c2ccccc2)on1 [5-(1-cyclohexyl-1H-pyrazol-4-yl)-3-(5-phenylisoxazol-3-yl)pyridin-2-amine],1000 to 10000,1000 to 10000,1000 to 10000
"Nc1ncc(-c2cnn(C3CCNCC3)c2)cc1-c1nnc(-c2cnccn2)o1 [5-(1-(piperidin-4-yl)-1H-pyrazol-4-yl)-3-(5-(pyrazin-2-yl)-1,3,4-oxadiazol-2-yl)pyridin-2-amine]",< 500,< 500,500 to 1000
CN1CCC(n2cc(-c3cnc(N)c(-c4ncc(-c5ccc(Cl)cc5)o4)c3)cn2)CC1 [3-(5-(4-chlorophenyl)oxazol-2-yl)-5-(1-(1-methylpiperidin-4-yl)-1H-pyrazol-4-yl)pyridin-2-amine],< 500,< 500,< 500
Nc1ncc(-c2cnn(C3CCNCC3)c2)cc1-c1ncc(-c2ccccc2)o1 [3-(5-phenyloxazol-2-yl)-5-(1-(piperidin-4-yl)-1H-pyrazol-4-yl)pyridin-2-amine],< 500,< 500,< 500
"Nc1ncc(-c2ccn(C3CCNCC3)c2)cc1-c1nnc(-c2c(Cl)cccc2Cl)o1 [3-(5-(2,6-dichlorophenyl)-1,3,4-oxadiazol-2-yl)-5-(1-(piperidin-4-yl)-1H-pyrrol-3-yl)pyridin-2-amine]",< 500,< 500,< 500
Nc1ncc(-c2cnn(C3CCN(C(=O)Cc4ccccc4)CC3)c2)cc1-c1ncc(-c2ccc(Cl)cc2)o1 [1-(4-(4-(6-amino-5-(5-(4-chlorophenyl)oxazol-2-yl)pyridin-3-yl)-1H-pyrazol-1-yl)piperidin-1-yl)-2-phenylethanone],< 500,< 500,1000 to 10000
"CC(C)(C)c1ccc(-c2nnc(-c3cc(-c4cn[nH]c4)cnc3N)o2)cc1 [3-(5-(4-(tert-butyl)phenyl)-1,3,4-oxadiazol-2-yl)-5-(1H-pyrazol-4-yl)pyridin-2-amine]",> 10000,1000 to 10000,> 10000
CC(=O)N1CCC(n2cc(-c3cnc(N)c(-c4ncc(-c5cccc(Cl)c5)o4)c3)cn2)CC1 [1-(4-(4-(6-amino-5-(5-(3-chlorophenyl)oxazol-2-yl)pyridin-3-yl)-1H-pyrazol-1-yl)piperidin-1-yl)ethanone],< 500,< 500,< 500
Nc1ncc(-c2cnn(C3CCN(C(=O)c4ccccc4)CC3)c2)cc1-c1ncc(-c2ccc(Cl)cc2)o1 [(4-(4-(6-amino-5-(5-(4-chlorophenyl)oxazol-2-yl)pyridin-3-yl)-1H-pyrazol-1-yl)piperidin-1-yl)(phenyl)methanone],< 500,< 500,1000 to 10000
"CC(C)(C)OC(=O)N1CCC(n2cc(-c3cnc(N)c(-c4nnc(-c5nc(C(F)(F)F)cs5)o4)c3)cn2)CC1 [tert-butyl 4-(4-(6-amino-5-(5-(4-(trifluoromethyl)-thiazol-2-yl)-1,3,4-oxadiazol-2-yl)pyridin-3-yl)-1H-pyrazol-1-yl)piperidine-1-carboxylate]",1000 to 10000,< 500,> 10000
Nc1ncc(-c2cnn(C3CCNCC3)c2)cc1-c1ncc(-c2cccnc2)o1 [5-(1-(piperidin-4-yl)-1H-pyrazol-4-yl)-3-(5-(pyridin-3-yl)oxazol-2-yl)pyridin-2-amine],< 500,< 500,< 500
Nc1ncc(-c2cnn(C3CCOCC3)c2)cc1-c1ncc(-c2ccc(Cl)cc2)o1,> 10000,> 10000,> 10000
"CC(=O)N1CCC(n2cc(-c3cnc(N)c(-c4nnc(-c5c(Cl)cccc5Cl)o4)c3)cn2)CC1 [1-(4-(4-(6-amino-5-(5-(2,6-dichlorophenyl)-1,3,4-oxadiazol-2-yl)pyridin-3-yl)-1H-pyrazol-1-yl)piperidin-1-yl)ethanone]",< 500,< 500,< 500
